Consider two compounds from patent publication US20100168146A1, “Composition Comprising (R)-Spiro[L-Azabicyclo[2.2.2]Octane-3,2'(3'H)-Furo[2,3-B]Pyridine (AZD0328) and its Use in the Treatment of Alzheimer's Disease, ADHD or Cognitive Dysfunction” (priority 2008, published 2010).

Series [1] is described as follows: Pharmacological activity of metabolite. The conditions noted are these: major metabolite. The protocol: Pyridinyl methylation of AZD0328 was a unique polar metabolite (M2) observed in dog hepatocytes. Other minor hydroxylation/oxidation and glucuronide conjugation products were detected in monkey, dog, rat, and guinea pig hepatocyte incubations and mini-pig hepatic microsome incubations. […] Analysis of plasma and urine samples from either orally or iv dosed rats confirmed N-oxide product of AZD0328 was a main product in the excretion and circulation. The percentage of AZD0328 N-oxide in the plasma from male rats was much higher than from females.

The subject of another series is rats. Put plainly: Nicotine drug discrimination. The conditions noted are these: rat, sc, training drug. The protocol: AZD0328 was tested for its potential to produce nicotine-like stimulus effects after subcutaneous administration in a drug-discrimination procedure (Table 3).

As for `[O-][N+]12CCC(CC1)C1(Cc3cccnc3O1)C2` (centres unmarked) [quinuclidinyl-N-oxide of AZD0328], the Pharmacological activity result in series [1] was “pharmacological inactive”. For `CN1CCCC1c1cccnc1` (centres unmarked) [nicotine, reference compound], the Response rates result in the series with rats is “not significantly affected”.
